Source: US4476120A, “Thiolic derivatives of erythromycin having therapeutic activity, and pharmaceutical compositions containing them” (Sigma Tau Indistrie Farmaceutiche Riunites, p.A, priority 1982, dated 1984)
≈ marks a conversion by molar mass, not a printed value.

Legend:
Staph. albus SS 03 = format: cell-based; conditions: Brain Heart Infusion, estolate and RV11-RV15 previously hydrolized, unit assumed
Staph. albus SS 04 = format: cell-based; conditions: Brain Heart Infusion, estolate and RV11-RV15 previously hydrolized, unit assumed
Staph. aureus SS 07 [1] = format: cell-based; conditions: Brain Heart Infusion, estolate and RV11-RV15 previously hydrolized, unit assumed
Staph. aureus SS 08 = format: cell-based; conditions: Brain Heart Infusion, estolate and RV11-RV15 previously hydrolized, unit assumed
Staph. aureus SS 09 = format: cell-based; conditions: Brain Heart Infusion, estolate and RV11-RV15 previously hydrolized, unit assumed
Staph. aureus SS 10 = format: cell-based; conditions: Brain Heart Infusion, estolate and RV11-RV15 previously hydrolized, unit assumed
[2] = test system: Strept. haemolyticus SS 17; format: cell-based; conditions: Brain Heart Infusion, estolate and RV11-RV15 previously hydrolized, unit assumed
[3] = test system: Strept. haemolyticus SS 18; format: cell-based; conditions: Brain Heart Infusion, estolate and RV11-RV15 previously hydrolized, unit assumed
Strept. faecalis SS 19 = format: cell-based; conditions: Brain Heart Infusion, estolate and RV11-RV15 previously hydrolized, unit assumed
S. lutea ATCC 9341 = format: cell-based; conditions: Brain Heart Infusion, estolate and RV11-RV15 previously hydrolized, unit assumed
B. subtilis ATCC 6633 = format: cell-based; conditions: Brain Heart Infusion, estolate and RV11-RV15 previously hydrolized, unit assumed
B. subtilis SS 127 = format: cell-based; conditions: Brain Heart Infusion, estolate and RV11-RV15 previously hydrolized, unit assumed
B. cereus ATCC 11778 = format: cell-based; conditions: Brain Heart Infusion, estolate and RV11-RV15 previously hydrolized, unit assumed
B. anthranis SS 08 = format: cell-based; conditions: Brain Heart Infusion, estolate and RV11-RV15 previously hydrolized, unit assumed
Br. melitensis SS 19 = format: cell-based; conditions: unit assumed
Br. abortus SS 7 = format: cell-based; conditions: Brain Heart Infusion, estolate and RV11-RV15 previously hydrolized, unit assumed
Citrobacter SS 05 = format: cell-based; conditions: Brain Heart Infusion, estolate and RV11-RV15 previously hydrolized, unit assumed
Citrobacter SS 09 = format: cell-based; conditions: Brain Heart Infusion, estolate and RV11-RV15 previously hydrolized, unit assumed
S. infantis SS 08 = format: cell-based; conditions: Brain Heart Infusion, estolate and RV11-RV15 previously hydrolized, unit assumed
S. heidelberg SS 18 = format: cell-based; conditions: Brain Heart Infusion, estolate and RV11-RV15 previously hydrolized, unit assumed
E. cloacae SS 07 = format: cell-based; conditions: Brain Heart Infusion, estolate and RV11-RV15 previously hydrolized, unit assumed
E. aerogenes SS 011 = format: cell-based; conditions: Brain Heart Infusion, estolate and RV11-RV15 previously hydrolized, unit assumed
Ps. aeruginosa SS 10 = format: cell-based; conditions: Brain Heart Infusion, estolate and RV11-RV15 previously hydrolized, unit assumed
E. coli SS 04 = format: cell-based; conditions: Brain Heart Infusion, estolate and RV11-RV15 previously hydrolized, unit assumed
E. coli SS 05 = format: cell-based; conditions: Brain Heart Infusion, estolate and RV11-RV15 previously hydrolized, unit assumed
E. coli SS 06 = format: cell-based; conditions: Brain Heart Infusion, estolate and RV11-RV15 previously hydrolized, unit assumed
E. coli SS 07 = format: cell-based; conditions: Brain Heart Infusion, estolate and RV11-RV15 previously hydrolized, unit assumed
Pr. mirabilis SS 09 = format: cell-based; conditions: Brain Heart Infusion, estolate and RV11-RV15 previously hydrolized, unit assumed
Pr. vulgaris SS 10 = format: cell-based; conditions: Brain Heart Infusion, estolate and RV11-RV15 previously hydrolized, unit assumed
Kl. aerogenes SS 71 = format: cell-based; conditions: Brain Heart Infusion, estolate and RV11-RV15 previously hydrolized, unit assumed
H. tubercolosis SS 03 = format: cell-based; conditions: Brain Heart Infusion, estolate and RV11-RV15 previously hydrolized, unit assumed
From the text: (§1) In the following table I the MIC/ml values are indicated corresponding to the lowest concentration capable of inducing a complete inhibition of the bacterial development.

Kl. pneumoniae SS 04 = format: cell-based; conditions: Brain Heart Infusion, estolate and RV11-RV15 previously hydrolized, unit assumed
From the text: as §1

Sr. marcescens SS 03 = format: cell-based; conditions: Brain Heart Infusion, estolate and RV11-RV15 previously hydrolized, unit assumed
C. diphtheriae SS 19 = format: cell-based; conditions: Brain Heart Infusion, estolate and RV11-RV15 previously hydrolized, unit assumed
D. pneumoniae SS 23 [4] = format: cell-based; conditions: Brain Heart Infusion, estolate and RV11-RV15 previously hydrolized, unit assumed
N. gonorreae SS 27 = format: cell-based; conditions: Brain Heart Infusion, estolate and RV11-RV15 previously hydrolized, unit assumed
N. meningitidis SS 04 = format: cell-based; conditions: Brain Heart Infusion, estolate and RV11-RV15 previously hydrolized, unit assumed
H. influentiae SS 02 = format: cell-based; conditions: Brain Heart Infusion, estolate and RV11-RV15 previously hydrolized, unit assumed
H. pertussis SS 03 = format: cell-based; conditions: Brain Heart Infusion, estolate and RV11-RV15 previously hydrolized, unit assumed
C. albicans SS 04 = format: cell-based; conditions: Brain Heart Infusion, estolate and RV11-RV15 previously hydrolized, unit assumed
Cl. tetani SS 17 = format: cell-based; conditions: Brain Heart Infusion, estolate and RV11-RV15 previously hydrolized, unit assumed
B. anthranis SS 09 = format: cell-based; conditions: B. anthranis SS 09 (14 bis); Brain Heart Infusion; estolate and RV11-RV15 previously hydrolized; unit assumed
Acute toxicity = format: in vivo; conditions: mouse, in vivo, po; os; mortality 10 days after treatment; mice; read-out: LD50 (reliability limits)
Method: The acute toxicity was assessed in Swiss white mice by oral and intravenous route. The LD50 values have been calculated by the methods of Probits, starting from the mortality recorded 10 days after the treatment.

Staph. aureus SS 07 [5] = assay: Experimental infection induced by Staph. aureus SS 07; format: in vivo, Swiss white mice; conditions: Staphylococcus aureus, SS07, in Mus musculus, po, 168 h, os; Staph. aureus SS 07; mg/kg of erythromycin; survival after 7 days; read-out: ED50 (reliability limits)
Method: (§2) Swiss white mice of 20 g body weight were used, infected by parenteral administration of lethal amounts of pathogenic […] of Staph. aureus SS 07 and D. pneumoniae SS 23.
(§3) The antibiotics were administered at the time of injecting the infecting germ and 6 and 24 hours later. On the basis of the survival after 7 days, the ED50 values were determined, as reported in the following table II and III, wherein the reliability limits are indicated in brackets.

D. pneumoniae SS 23 [6] = assay: Experimental infection induced by D. pneumoniae SS 23; format: in vivo, Swiss white mice; conditions: Streptococcus pneumoniae, SS23, in Mus musculus, po, 168 h, os; D. pneumoniae SS 23; mg/kg of erythromycin; survival after 7 days; read-out: ED50 (reliability limits)
Method: as §2, §3

[7] = Hematic levels in the rat (absorption by oral route); conditions: 100 mg/kg as erythromycin, average, 100 mg/kg

CC[C@H]1OC(=O)[C@H](C)[C@@H](O[C@H]2C[C@@](C)(OC)[C@@H](O)[C@H](C)O2)[C@H](C)[C@@H](O[C@@H]2O[C@H](C)C[C@H](N(C)C)[C@H]2O)[C@](C)(O)C[C@@H](C)C(=O)[C@H](C)[C@@H](O)[C@]1(C)O [erythromycin]
MIC (Staph. albus SS 03): 0.05 µg/mL (≈ 0.0681 µM) | MIC (Staph. albus SS 04): 0.05 µg/mL (≈ 0.0681 µM) | MIC (Staph. aureus SS 07 [1]): 0.025 µg/mL (≈ 0.0341 µM) | MIC (Staph. aureus SS 08): 0.025 µg/mL (≈ 0.0341 µM) | MIC (Staph. aureus SS 09): 0.1 µg/mL (≈ 0.136 µM) | MIC (Staph. aureus SS 10): 0.1 µg/mL (≈ 0.136 µM) | MIC [2]: 3 µg/mL (≈ 4.09 µM) | MIC [3]: 1.5 µg/mL (≈ 2.04 µM) | MIC (Strept. faecalis SS 19): 0.1 µg/mL (≈ 0.136 µM) | MIC (S. lutea ATCC 9341): 0.01 µg/mL (≈ 0.0136 µM) | MIC (B. subtilis ATCC 6633): 0.025 µg/mL (≈ 0.0341 µM) | MIC (B. subtilis SS 127): 0.05 µg/mL (≈ 0.0681 µM) | MIC (B. cereus ATCC 11778): 0.4 µg/mL (≈ 0.545 µM) | MIC (B. anthranis SS 08): 0.4 µg/mL (≈ 0.545 µM) | MIC (Br. melitensis SS 19): 3 µg/mL (≈ 4.09 µM) | MIC (Br. abortus SS 7): 12 µg/mL (≈ 16.4 µM) | MIC (Citrobacter SS 05): > 200 µg/mL | MIC (Citrobacter SS 09): > 200 µg/mL | MIC (S. infantis SS 08): 100 µg/mL (≈ 136 µM) | MIC (S. heidelberg SS 18): 100 µg/mL (≈ 136 µM) | MIC (E. cloacae SS 07): > 200 µg/mL | MIC (E. aerogenes SS 011): 100 µg/mL (≈ 136 µM) | MIC (Ps. aeruginosa SS 10): 100 µg/mL (≈ 136 µM) | MIC (E. coli SS 04): 100 µg/mL (≈ 136 µM) | MIC (E. coli SS 05): 50 µg/mL (≈ 68.1 µM) | MIC (E. coli SS 06): 100 µg/mL (≈ 136 µM) | MIC (E. coli SS 07): 50 µg/mL (≈ 68.1 µM) | MIC (Pr. mirabilis SS 09): > 200 µg/mL | MIC (Pr. vulgaris SS 10): > 200 µg/mL | MIC (Kl. aerogenes SS 71): 50 µg/mL (≈ 68.1 µM) | MIC (H. tubercolosis SS 03): 50 µg/mL (≈ 68.1 µM) | MIC (Kl. pneumoniae SS 04): 100 µg/mL (≈ 136 µM) | MIC (Sr. marcescens SS 03): 200 µg/mL (≈ 273 µM) | MIC (C. diphtheriae SS 19): 0.01 µg/mL (≈ 0.0136 µM) | MIC (D. pneumoniae SS 23 [4]): 0.05 µg/mL (≈ 0.0681 µM) | MIC (N. gonorreae SS 27): 0.8 µg/mL (≈ 1.09 µM) | MIC (N. meningitidis SS 04): 0.8 µg/mL (≈ 1.09 µM) | MIC (H. influentiae SS 02): 1.5 µg/mL (≈ 2.04 µM) | MIC (H. pertussis SS 03): 0.4 µg/mL (≈ 0.545 µM) | MIC (C. albicans SS 04): 100 µg/mL (≈ 136 µM) | MIC (Cl. tetani SS 17): 0.4 µg/mL (≈ 0.545 µM) | MIC (B. anthranis SS 09): 0.4 µg/mL (≈ 0.545 µM) | LD50 at 240 h (Acute toxicity): > 3000 mg/kg | ED50 (Staph. aureus SS 07 [5]): 2.09 mg/kg | ED50 (D. pneumoniae SS 23 [6]): 114 mg/kg | Hematic levels in the rat ([7]; 2 hours, 120 min): 1.15 µg/mL | Hematic levels in the rat ([7]; 6 hours, 360 min): 0.03 µg/mL | concentration at 0.3 h ([7]; rat, blood, po, Hematic levels in the rat, 0.30 hours): 710 ng/mL | concentration at 1 h ([7]; rat, blood, po, Hematic levels in the rat, 1 hour): 1030 ng/mL | concentration at 3 h ([7]; rat, blood, po, Hematic levels in the rat, 3 hours): 1050 ng/mL | concentration at 4 h ([7]; rat, blood, po, Hematic levels in the rat, 4 hours): 370 ng/mL | concentration at 5 h ([7]; rat, blood, po, Hematic levels in the rat, 5 hours): 260 ng/mL
